Experimental findings from PubChem BioAssay (NCI) are described below.

Some test systems named below: HCC-2998 colon; HCT-116 colon; HOP-62 NSCLC; MDA-MB-231 breast; MOLT-4 leukemia; OVCAR-4 ovarian; OVCAR-8 ovarian; SK-MEL-2 melanoma; TK-10 renal; UACC-62 melanoma.
What all share (assay): NCI-60 cell line screen, 48 h

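Exposure lasted 48 hours, with cells grown in 96-well plates and compounds tested at five concentrations. Here, GI50 denotes the concentration required for 50% inhibition of growth. TGI: total growth inhibition.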 A value given as a limit tells only on which side of the number the result lay.

Regarding `COc1ccccc1Nc1nc(-c2cc3cccc(C(F)(F)F)c3oc2=O)cs1`, the GI50 in the experiment with HCC-2998 colon was 0.344 µM; with HCT-116 colon, 0.0805 µM; in the experiment with HOP-62 NSCLC, 0.134 µM; in the experiment with MDA-MB-231 breast it was 0.516 µM; with MOLT-4 leukemia, 0.5 µM; with OVCAR-4 ovarian it was 0.185 µM. Also, the GI50 with OVCAR-8 ovarian was 0.301 µM; in the experiment with SK-MEL-2 melanoma it was 0.262 µM; in the experiment on TK-10 renal, 13.5 µM; with UACC-62 melanoma it was 0.154 µM. The TGI is over 47.7 µM in the experiment with HCC-2998 colon; 11.1 µM in the experiment on HCT-116 colon; 29.7 µM with HOP-62 NSCLC; over 55.9 µM in the experiment with MDA-MB-231 breast; over 100 µM with MOLT-4 leukemia; over 63.3 µM with OVCAR-4 ovarian. Besides, the TGI in the experiment with OVCAR-8 ovarian is over 100 µM; in the experiment with SK-MEL-2 melanoma, over 100 µM; in the experiment on TK-10 renal, 81.2 µM; in the experiment on UACC-62 melanoma, over 81.6 µM.
On to `N#Cc1c2ccccc2c2nnc3cc(Cl)c(Cl)cc3n12`, for which the GI50 is 23 µM in the experiment with HCC-2998 colon; 34.2 µM in the experiment with HCT-116 colon; 31.2 µM with HOP-62 NSCLC; 24.2 µM in the experiment with MDA-MB-231 breast; 27.4 µM with MOLT-4 leukemia; 40.8 µM in the experiment with OVCAR-4 ovarian. Besides, the GI50 with OVCAR-8 ovarian is 40 µM; in the experiment on SK-MEL-2 melanoma it was 60.7 µM; in the experiment on TK-10 renal, over 100 µM; in the experiment on UACC-62 melanoma it was 62.1 µM. The TGI was 82.1 µM with HCC-2998 colon; over 100 µM with HCT-116 colon; over 100 µM with HOP-62 NSCLC; 74.6 µM in the experiment with MDA-MB-231 breast; over 100 µM in the experiment on MOLT-4 leukemia; over 100 µM in the experiment with OVCAR-4 ovarian. Moreover, the TGI in the experiment on OVCAR-8 ovarian, with SK-MEL-2 melanoma, with TK-10 renal and in the experiment on UACC-62 melanoma was over 100 µM in each case.
Consider `CC(C)[C@]12O[C@H]1[C@@H]1O[C@]13[C@]1(O[C@H]1C[C@H]1c4c(C(=O)c5ccccc5)oc(OC(=O)c5ccccc5)c4CC[C@@]13C)[C@@H]2O`, for which the GI50 is 0.0378 µM in the experiment with HCC-2998 colon; 0.0142 µM in the experiment with HCT-116 colon; 0.0278 µM in the experiment with HOP-62 NSCLC; 0.0463 µM in the experiment with MDA-MB-231 breast; 0.0236 µM with MOLT-4 leukemia; 0.0313 µM in the experiment on OVCAR-4 ovarian. Further, the GI50 in the experiment on OVCAR-8 ovarian is 0.0494 µM; with SK-MEL-2 melanoma, 0.0252 µM; in the experiment on TK-10 renal, 0.0282 µM; in the experiment on UACC-62 melanoma, 0.0134 µM. The TGI in the experiment on HCC-2998 colon was 0.355 µM; in the experiment with HCT-116 colon, over 100 µM; in the experiment with HOP-62 NSCLC, 0.735 µM; in the experiment with MDA-MB-231 breast, 43.7 µM; in the experiment with MOLT-4 leukemia it was over 31.6 µM; in the experiment on OVCAR-4 ovarian, over 88.4 µM. The TGI in the experiment on OVCAR-8 ovarian is over 50.2 µM; with SK-MEL-2 melanoma, 0.0781 µM; with TK-10 renal it was 27.1 µM; in the experiment with UACC-62 melanoma it was 0.0333 µM.
For `O=C1/C(=C/c2ccc(O)cc2)CCC1CNc1ccc(Cl)cc1` (stereo unspecified), the TGI came out at 14.8 µM in the experiment on HCC-2998 colon; 5.77 µM in the experiment with HCT-116 colon; 20.7 µM with HOP-62 NSCLC; 9.56 µM with MDA-MB-231 breast; 6.45 µM in the experiment with MOLT-4 leukemia; 8.86 µM in the experiment with OVCAR-4 ovarian. Besides, the TGI is 7.1 µM in the experiment with OVCAR-8 ovarian, 28.7 µM in the experiment on SK-MEL-2 melanoma, 10.3 µM in the experiment with TK-10 renal and 5.86 µM in the experiment on UACC-62 melanoma.
In the case of `Cn1c(=O)c(Cc2ccc(F)cc2F)cc2cnc(NC3CCOCC3)nc21`, the GI50 in the experiment with HCC-2998 colon is over 25 µM; in the experiment on HCT-116 colon, over 25 µM; in the experiment with HOP-62 NSCLC, over 25 µM; with MDA-MB-231 breast it was over 16.2 µM; with MOLT-4 leukemia, over 21.2 µM; with OVCAR-4 ovarian, over 21.7 µM. Besides, the GI50 in the experiment on OVCAR-8 ovarian was over 25 µM; in the experiment on SK-MEL-2 melanoma, over 25 µM; in the experiment on TK-10 renal it was 14.5 µM; in the experiment with UACC-62 melanoma, over 23.8 µM. Also, the TGI in the experiment with HCC-2998 colon, with HCT-116 colon, in the experiment on HOP-62 NSCLC, in the experiment with MDA-MB-231 breast, in the experiment on MOLT-4 leukemia and in the experiment with OVCAR-4 ovarian was over 25 µM throughout. Besides, the TGI in the experiment with OVCAR-8 ovarian, in the experiment with SK-MEL-2 melanoma, with TK-10 renal and in the experiment on UACC-62 melanoma was over 25 µM each time.
With `COc1ccc(C(=O)Nc2cccc(C3CC(=O)c4c(cc(OC)c(OC)c4OC)O3)c2)cc1` (stereo unspecified), the GI50 was 3.46 µM in the experiment on HCC-2998 colon; 0.381 µM in the experiment with HCT-116 colon; 1.72 µM with HOP-62 NSCLC; 2.06 µM in the experiment on MDA-MB-231 breast; 1.02 µM in the experiment on MOLT-4 leukemia; 3.11 µM in the experiment on OVCAR-4 ovarian. Also, the GI50 was 2.79 µM in the experiment with OVCAR-8 ovarian, 2.09 µM in the experiment with SK-MEL-2 melanoma, 7.28 µM in the experiment on TK-10 renal and 0.557 µM in the experiment on UACC-62 melanoma. Also, the TGI in the experiment on HCC-2998 colon was 87.1 µM; in the experiment on HCT-116 colon, over 100 µM; with HOP-62 NSCLC, over 100 µM; in the experiment with MDA-MB-231 breast, over 100 µM; with MOLT-4 leukemia, 5.18 µM; in the experiment on OVCAR-4 ovarian, 30.7 µM. The TGI in the experiment on OVCAR-8 ovarian was 20.5 µM; in the experiment with SK-MEL-2 melanoma, 27.1 µM; in the experiment on TK-10 renal, over 100 µM; with UACC-62 melanoma, 10.8 µM.
For the molecule `C=C1C(=O)O[C@H]2[C@H]1CC/C(Cn1cc(CCC)nn1)=C\CC[C@@]1(C)O[C@@H]21`, the GI50 was 15.1 µM in the experiment with HCC-2998 colon; 3.98 µM in the experiment on HCT-116 colon; 14.1 µM in the experiment with HOP-62 NSCLC; 4.22 µM with MDA-MB-231 breast; 5.54 µM with MOLT-4 leukemia; 9.46 µM in the experiment with OVCAR-4 ovarian. The GI50 was 13.5 µM in the experiment on OVCAR-8 ovarian, 16.3 µM with SK-MEL-2 melanoma and 3.86 µM in the experiment on TK-10 renal. Moreover, the TGI was found to be 32.9 µM in the experiment with HCC-2998 colon; 14.4 µM in the experiment on HCT-116 colon; 27.8 µM with HOP-62 NSCLC; 16.3 µM in the experiment on MDA-MB-231 breast; 27.6 µM in the experiment on MOLT-4 leukemia; 22.7 µM in the experiment on OVCAR-4 ovarian. The TGI in the experiment on OVCAR-8 ovarian was 29.8 µM; with SK-MEL-2 melanoma, 34.5 µM; with TK-10 renal, 14.6 µM.
Take `Cn1cccc1-c1cc(-c2ccc(Br)cc2)nc(N)c1C#N`: the GI50 was over 100 µM in the experiment on HCC-2998 colon; over 100 µM with HCT-116 colon; 69.9 µM with MDA-MB-231 breast; over 100 µM with MOLT-4 leukemia; 77.2 µM in the experiment with OVCAR-4 ovarian; over 100 µM with OVCAR-8 ovarian. The values for the GI50 with SK-MEL-2 melanoma, with TK-10 renal and with UACC-62 melanoma were over 100 µM, over 100 µM and 33.3 µM, respectively. In addition, the TGI in the experiment on HCC-2998 colon, with HCT-116 colon, with MDA-MB-231 breast, in the experiment on MOLT-4 leukemia, in the experiment with OVCAR-4 ovarian and in the experiment with OVCAR-8 ovarian was over 100 µM throughout. The TGI in the experiment on SK-MEL-2 melanoma, in the experiment with TK-10 renal and in the experiment on UACC-62 melanoma was over 100 µM each time.
